Test results from patent publication US10849901B2, “Arf6 inhibitors and methods of synthesis and use thereof” (Navigen, Inc., priority 2014, dated 2020).
“Also recorded” adds a separate entry of the source. Where two headings read alike, the source gives them in different places.

Legend:
H1N1 virus = conditions: IP QD five days; Compound 65 20 mg/kg, ribavirin 75 mg/kg
[1] = system: VEGF-induced retinal permeability; assay: VEGF-induced retinal permeability in mice (Evans blue dye); type: in vivo; conditions: mice
Procedure: (§1) In the experiment, VEGF (50 ng) and either Compound 38 or 65 (500 ng) or NAV-3745 (500 ng) were given to mice in a single intraocular injection. Evans blue dye (EBD) was given via IV approximately 6 hours after the injection, and the retinas were harvested after an additional 2 hours. Retinal permeability was measured on Day 2 after an overnight extraction of EBD in formamide, at OD 620-740 nm.
as §1, with “the test compound” for “either Compound 38 or 65 (500 ng) or NAV-3745 (500 ng)”, “injection. Avastin was given at a dose of 20 μg, Compound 38 at either 50 ng or 500 ng (as noted in FIG. 7), and SU4312 at 5 μg. As with the previous experiment,” for “injection.”

Arf6 [2] = target: Arf6 (Homo sapiens (Human), UniProt P62330); assay: Fluorometric assay for Arf6 nucleotide exchange catalyzed by ARNO Sec7 domain (GTP-BODIPY FL); type: biochemical
Arf6 [3] = target: Arf6 (Mus musculus (Mouse), UniProt P62331); assay: Arf6 pulldown assay (GTP-bound Arf6, GST-Gga3, Western blot); type: cell-based; conditions: NIH3T3 cells, 4 hours incubation
Procedure: The cell cultures were incubated in the presence of test compounds for 4 hours followed by pull-down of GTP-bound Arf6 from cell lysates using recombinant GST-Gga3 immobilized on glutathione agarose and Western blot analysis.
Arf6 pulldown assay: Assessment of intracellular levels of active Arf6 may be a direct mechanism-based approach for monitoring on-target cellular activities of active Arf6 inhibitors. A commercially available pull-down technique, which relies on recombinant Gga3 protein as a sensor of the GTP-bound state for the members of Arf protein family, can be employed for this purpose (see, e.g., Shiba T, Kawasaki M, Takatsu H, Nogi T, Matsugaki N, Igarashi N, Suzuki M, Kato R, Nakayama K, Wakatsuki S. Molecular mechanism of membrane recruitment of GGA by ARF in lysosomal protein transport. Nat Struct Biol. 2003 May; 10(5):386-93).
The vendor's procedure was modified from 10-cm culture dish to 24-well plate format and adapted to a number of different cell lines, including cultured mouse embryonic fibroblasts NIH 3T3 due to its robust response to Arf6 inhibitors observed in the proof-of-principle studies (see FIG. 2).

[4] = system: Choroidal Neovascularization (CNV); assay: Laser-induced choroidal neovascularization (CNV) in mice; type: in vivo; conditions: 5 μg, 0.5 μg and 0.05 μg on Days 0 and 7, measured Day 14
Procedure: In the experiment on Day 0, the Bruch's membrane of each eye was disrupted with a laser. On Days 0 and 7, test compounds were administered, and on Day 14, the area of CNV was measured. Commercially available compound SU4312 was used as a positive control. Compound 38 was dosed at 5 μg, 0.5 μg, and 0.05 μg, as noted in FIG. 9.

[5] = system: VEGF-induced retinal permeability; assay: VEGF-induced retinal permeability in rats (Evans blue dye); type: in vivo; conditions: rats; Compound 38 60 mg/kg IP, Avastin 200 μg intraocular (FIG. 8)
Procedure: In the experiment, VEGF (500 ng) and Avastin (200 μg) were given to rats in a single intraocular injection on Day 1. Compound 38 (60 mg/kg) was administered by IP injection 1 hour prior to VEGF on Day 1. Rats were given Evans blue dye (EBD) via IV infusion on Day 2, and the retinas were harvested after an additional 1.5 hours. The retinas were dissected and incubated overnight in formamide. Vascular leak was calculated on Day 3.

LOX melanoma cells [6] = assay: Cell proliferation assay (WST-8), LOX; type: cell-based; conditions: concentrations greater than 1 μM
Excerpt: (§2) Cell proliferation assay: This assay employs WST-8 colorimetric readout (Dojindo) and relies on the total activity of mitochondrial dehydrogenases as a measure of the number of viable cells over time.

[7] = system: oxygen-induced retinopathy; assay: Oxygen-induced retinopathy (OIR) in mice; type: in vivo; conditions: 5 μg intraocular Days 12 and 15, measured Day 17
Procedure: In the experiment, mice pups were placed in a 75% oxygen environment from Days 5-12. The mice were returned to a normal oxygen environment on Day 13. The test compounds were administered (5 μg) by intraocular injection on Days 12 and 15, and the area of neovascularization was measured on Day 17. Compound 38 was compared with SU4312 in oxygen-induced retinopathy (OIR) in mice (see FIG. 11). […]

LOX melanoma cells [8] = assay: Cell invasion assay (Matrigel Invasion Chambers); type: cell-based
Excerpt: Cell invasion assay: This assay uses Matrigel Invasion Chambers (BD Biosciences) and monitors cell penetration through 8.0 μm filters coated with a solubilized basement membrane matrix, which serves as barrier for non-invading cells (see, e.g., Albini A, Iwamoto Y, Kleinman H K, Martin G R, Aaronson S A, Kozlowski J M, McEwan R N. A rapid in vitro assay for quantitating the invasive potential of tumor cells. Cancer Res. 1987 Jun. 15; 47(12):3239-45).

[9] = system: LPS-induced acute lung injury; assay: LPS-induced acute lung injury in mice (BALF analysis); type: in vivo; conditions: 24 hours after LPS, Compound 38 60 mg/kg, dexamethasone 5 mg/kg
Procedure: In the experiment, LPS (5 mg/kg) was given by intra-tracheal instillation. Dexamethasone (5 mg/kg) was given as a positive control 2 hours after the LPS. Bronchoalveolar fluid (BALF) was analyzed for cell count and protein 24 hours after the LPS.

[10] = system: LN-229 glioblastoma cells; assay: Cell proliferation assay (WST-8), LN-229; type: cell-based; conditions: concentrations greater than 1 μM
Excerpt: as §2

[11] = 500 ng single intraocular injection with VEGF 50 ng (FIG. 6)
[12] = 20 nM Arf6 assay, read-out: IC50 (μM) 20 nM Arf6
[13] = 200 nM Arf6 assay, read-out: IC50 (μM) 200 nM Arf6

Arf6 (Homo sapiens (Human), UniProt P62330), sequence (P62330 14-175): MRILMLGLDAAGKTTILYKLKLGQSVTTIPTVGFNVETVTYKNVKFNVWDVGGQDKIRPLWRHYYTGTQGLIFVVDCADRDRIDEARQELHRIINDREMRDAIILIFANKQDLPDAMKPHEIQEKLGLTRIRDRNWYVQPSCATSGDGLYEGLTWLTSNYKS
Arf6 (Mus musculus (Mouse), UniProt P62331), sequence (P62331 whole entry): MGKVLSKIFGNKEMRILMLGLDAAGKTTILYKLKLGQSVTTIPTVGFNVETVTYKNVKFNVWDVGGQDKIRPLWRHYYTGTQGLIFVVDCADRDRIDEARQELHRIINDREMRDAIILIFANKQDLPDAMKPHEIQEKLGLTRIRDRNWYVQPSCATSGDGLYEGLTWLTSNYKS

Structure (SMILES) | mortality of mice infected with H1N1 virus (H1N1 virus) | VEGF-induced retinal permeability [1, 11] | IC50 (Arf6 [2]; [12]) [µM] | IC50 (Arf6 [2]; [13]) [µM] | Inhibition of Arf6 activation (GTP-bound Arf6) (Arf6 [3]) | area of CNV [4] | VEGF-induced retinal permeability [5] | inhibition of LOX cell proliferation (LOX melanoma cells [6]) | area of neovascularization [7] | VEGF-induced retinal permeability ([1]; single intraocular injection, Compound 38 50 ng or 500 ng, Avastin 20 μg, SU4312 5 μg (FIG. 7)) | FBS-induced LOX cell invasion through Matrigel (LOX melanoma cells [8]; 1 μM) | inhibition of melanoma cell invasion (LOX melanoma cells [8]; LOX melanoma cells) | number of cells in the lung fluid (BALF) [9] | protein concentration in the lung fluid (BALF) [9] | inhibition of LN-229 cell proliferation [10]
O=c1cc(Cc2ccccc2)[nH]c2c(-c3ccc(Cl)cc3)c(C(F)(F)F)nn12 [Compound 65] | reduced the mortality of mice nearly as well as ribavirin | reduced VEGF-induced retinal permeability | 3.7 | 4.9 | – | – | – | – | – | – | – | – | – | – | –
O=c1cc(-c2ccc([N+](=O)[O-])cc2)[nH]c2c(-c3ccc(Cl)cc3)c(Cc3ccccc3)nn12 [Compound 38] | – | reduced VEGF-induced retinal permeability | 1.8 | 1.4 | Inhibition of Arf6 activation | reduced the area of CNV in a dose-dependent manner | reduced VEGF-induced retinal permeability | can inhibit proliferation; also recorded: potent inhibitor | reduced the area of neovascularization | reduced VEGF-induced retinal permeability | substantially inhibit, or completely inhibit | can inhibit invasion; also recorded: more potent inhibitor of melanoma cell invasion than SecinH3 | reduced the number of cells | reduced | can inhibit proliferation; also recorded: potent inhibitor
